Source: US6075120A (priority 1995, dated 2000)
Square brackets hold non-standard residues; d marks the D form. Peptide text beside a SMILES is read from it. * marks the point of attachment. X1 = CN1CC[C@]23c4c5ccc(O)c4O[C@H]2C(NCCSC2CC(=O)N(CCCCCCN4C(=O)CC(*)C4=O)C2=O)CC[C@@]3(O)[C@H]1C5; Hyp = O=C(O)[C@@H]1C[C@@H](O)CN1

Experiments:
[1] = biological target: T1, purified human neutrophil elastase (HNE) (Homo sapiens, UniProt P08246); test: neutrophil elastase inhibition with chromogenic substrate MOS-AAPV-pNA; format: biochemical; settings: MOS-AAPV-pNA 0.5 mM, HNE 10-20 nM, pH 7.5, 25 C; read-out: Ki^ss (HNE)
T1 sequence (P08246 30-247 limits assumed): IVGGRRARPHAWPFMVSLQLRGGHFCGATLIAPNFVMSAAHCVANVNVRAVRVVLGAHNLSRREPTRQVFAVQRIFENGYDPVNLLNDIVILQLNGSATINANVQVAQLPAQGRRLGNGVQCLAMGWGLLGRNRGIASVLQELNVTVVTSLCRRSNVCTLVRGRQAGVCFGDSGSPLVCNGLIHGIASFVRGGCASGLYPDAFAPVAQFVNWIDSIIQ

BK2 -receptor = biological target: T2, BK2 -receptor (Rattus norvegicus, UniProt P25023); test: rat uterus assay of bradykinin antagonist (BKAn) activity; format: cell-based; settings: bradykinin induced uterine contraction
T2 construct: BKAn activity (pA2) was assessed using the rat uterus preparation; from tissue; host or cells: rat uterus
T2 sequence (P25023 1-396): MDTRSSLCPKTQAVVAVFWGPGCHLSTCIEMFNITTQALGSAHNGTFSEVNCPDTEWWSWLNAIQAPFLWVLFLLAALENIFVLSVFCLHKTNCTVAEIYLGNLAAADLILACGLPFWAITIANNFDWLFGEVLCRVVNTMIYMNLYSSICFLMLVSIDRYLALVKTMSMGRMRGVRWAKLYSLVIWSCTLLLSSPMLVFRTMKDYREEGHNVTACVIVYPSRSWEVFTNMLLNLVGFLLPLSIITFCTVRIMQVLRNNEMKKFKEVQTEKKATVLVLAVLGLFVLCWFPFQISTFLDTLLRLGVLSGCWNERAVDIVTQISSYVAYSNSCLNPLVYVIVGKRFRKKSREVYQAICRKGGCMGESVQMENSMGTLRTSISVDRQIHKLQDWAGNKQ

[2] = tested on: mice injected in the hind limb foot pad with formalin; test: mouse formalin test (inflammatory and neurogenic pain, hind limb licking); format: in vivo; settings: for narcotic / behavioral side effects observed in the formalin test: oxymorphone at highest doses 0.9 and 3.0 umoles/kg, CP-0494 over several hours
Procedure: In order to test the activity of these compounds in vivo, a model of inflammatory and neurogenic pain was used. This model measures the behavioral responses of mice injected in the hind limb foot pad with 50 ul of formalin. Control mice (open circles) show a characteristic bi-phasic response to the injected formalin wherein there is a short lasting initial response followed by a quiescent period which is then followed by a sustained period of hind limb licking. The licking behavior is interpreted to mean that the limb is irritated and painful. The greater the time spent licking, the more painful the stimulus.

cyclooxygenase = test: rat lung parenchymal strips challenged with arachidonic acid; format: cell-based; settings: contraction in response to exogenously applied arachidonic acid
Description: As mentioned previously, for the COI to work it may need to be dissociated from the BKAn so as to allow for its intracellular penetration. Therefore, in order to evaluate the functional activity of a BKAn/COI heterodimer, CP-0460 was exposed to rat lung parenchymal strips which were then challenged with arachidonic acid. This tissue is known to contain both non-specific esterase activity as well as to convert arachidonic acid to thromboxane (via a cyclooxygenase dependent pathway) which is then ultimately responsible for the smooth muscle contraction observed in this assay.

[3] = freshly obtained normal human plasma; settings: 37° C.

Compound: CC(C)(C)c1ccc(C(C)(C)C(=O)Oc2ccc(S(=O)(=O)CCCC(=O)O)cc2)cc1 [CE-1218, 4-(3'-carboxy-propylsulfonyl)phenyl 4-tert-butylphenylisobutyrate]
- Ki [1]: 10.5 nM
- pA2 --Rat Uterus (BK2 -receptor): inactive

Compound: CC(C)C[C@H](NC(=O)[C@@H](Cc1ccccc1)NC(=O)[C@H](CSC1CC(=O)N(CCCCCCN2C(=O)CC(SCCNC3CC[C@@]4(O)[C@H]5Cc6ccc(O)c7c6[C@@]4(CCN5C)[C@H]3O7)C2=O)C1=O)NC(=O)[C@H](Cc1ccccc1)NC(=O)CNC(=O)[C@@H]1C[C@@H](O)CN1C(=O)[C@@H]1CCCN1C(=O)[C@H](CCCNC(=N)N)NC(=O)[C@H](N)CCCNC(=N)N)C(=O)N[C@@H](CCCNC(=N)N)C(=O)O (some centres unmarked) [CP-0494] (H-[dR]RP[Hyp]GFC(X1)[dF]LR-OH)
- narcotic / behavioral side effects observed in the formalin test [2]: no observable narcotic effects

Compound: COc1ccc2c(c1)c(CC(=O)O)c(C)n2C(=O)c1ccc(Cl)cc1 [indomethacin]
- pA2 --Rat Uterus (BK2 -receptor): no effect
- log dose ratio shift (cyclooxygenase): 0.998±0.425

Compound: CN1CC[C@]23c4c5ccc(O)c4O[C@H]2C(=O)CC[C@@]3(O)[C@H]1C5 [oxymorphone]
- effect on licking behavior in both phases of the formalin test ([2]; 50 ul formalin in hind limb foot pad): reduces both phases of the licking behavior
- narcotic / behavioral side effects observed in the formalin test [2]: significant behavioral obtundation resulting in catalepsy and frank respiratory depression

Compound: DR-R-P-J-G-F-C-DF-L-R
- cleaved bond [3]: Leu8-Arg9
